Experimental data from patent publication US20230413820A1, “HERBICIDAL N-HETEROARYL PYRAZOLE COMPOUNDS” (SYNGENTA CROP PROTECTION AG, priority 2020, published 2023).

Assays:
Assay type in all cases: in vivo
[1] = tested on: Echinochloa crus-galli (ECHCG); experiment: Post-emergence herbicide glasshouse test; conditions: 250 g/ha, sprayed after 8 days cultivation, evaluated after 13 days
Description: (§1) Seeds of a variety of test species (Abutilon theophrasti (ABUTH), Amaranthus retoflexus (AMARE), Echinochloa crus-galli (ECHCG), Ipomoea hederacea (IPOHE), Setaria faberi (SETFA)) are sown in standard soil in pots. After cultivation for one day (pre-emergence) or after 8 days cultivation (post-emergence) under controlled conditions in a glasshouse (at 24/16° C., day/night; 14 hours light; 65% humidity), the plants are sprayed with an aqueous spray solution derived from the formulation of the technical active ingredient in acetone/water (50:50) solution containing 0.5% Tween 20 (polyoxyethelyene sorbitan monolaurate, CAS RN 9005-64-5). Compounds are applied at 250 g/ha unless otherwise stated. The test plants are then grown in a glasshouse under controlled conditions in a glasshouse (at 24/16° C., day/night; 14 hours light; 65% humidity) and watered twice daily. After 13 days for pre- and post-emergence, the test is evaluated for the percentage damage caused to the plant. The biological activities are shown in the following table on a five-point scale (5=81-100%; 4=61-80%; 3=41-60%; 2=21-40%; 1=0-20%).

[2] = tested on: Amaranthus retoflexus (AMARE); experiment: Post-emergence herbicide glasshouse test; conditions: 250 g/ha, sprayed after 8 days cultivation, evaluated after 13 days
Description: as §1

[3] = tested on: Ipomoea hederacea (IPOHE); experiment: Post-emergence herbicide glasshouse test; conditions: 250 g/ha, sprayed after 8 days cultivation, evaluated after 13 days
Description: as §1

Setaria faberi (SETFA) [4] = experiment: Post-emergence herbicide glasshouse test; conditions: 250 g/ha, sprayed after 8 days cultivation, evaluated after 13 days
Description: as §1

[5] = tested on: Abutilon theophrasti (ABUTH); experiment: Post-emergence herbicide glasshouse test; conditions: 250 g/ha, sprayed after 8 days cultivation, evaluated after 13 days
Description: as §1

[6] = tested on: Echinochloa crus-galli (ECHCG); experiment: Pre-emergence herbicide glasshouse test; conditions: 250 g/ha, sprayed after one day cultivation, evaluated after 13 days
Description: as §1

[7] = tested on: Amaranthus retoflexus (AMARE); experiment: Pre-emergence herbicide glasshouse test; conditions: 250 g/ha, sprayed after one day cultivation, evaluated after 13 days
Description: as §1

[8] = tested on: Ipomoea hederacea (IPOHE); experiment: Pre-emergence herbicide glasshouse test; conditions: 250 g/ha, sprayed after one day cultivation, evaluated after 13 days
Description: as §1

Setaria faberi (SETFA) [9] = experiment: Pre-emergence herbicide glasshouse test; conditions: 250 g/ha, sprayed after one day cultivation, evaluated after 13 days
Description: as §1

[10] = tested on: Abutilon theophrasti (ABUTH); experiment: Pre-emergence herbicide glasshouse test; conditions: 250 g/ha, sprayed after one day cultivation, evaluated after 13 days
Description: as §1

Row | SMILES | percentage damage caused to the plant, ECHCG [1] | percentage damage caused to the plant, AMARE [2] | percentage damage caused to the plant, IPOHE [3] | percentage damage caused to the plant, SETFA (Setaria faberi (SETFA) [4]) | percentage damage caused to the plant, ABUTH [5] | percentage damage caused to the plant, ECHCG [6] | percentage damage caused to the plant, AMARE [7] | percentage damage caused to the plant, IPOHE [8] | percentage damage caused to the plant, SETFA (Setaria faberi (SETFA) [9]) | percentage damage caused to the plant, ABUTH [10]
1 | FC(F)(F)c1cc(Oc2cccc(Cl)n2)n(-c2ncc(Cl)cn2)n1 [Compound 1.001] | 4 (4=61-80%) | 5 (5=81-100%) | 2 (2=21-40%) | 3 (3=41-60%) | 2 (2=21-40%) | 5 (5=81-100%) | 5 (5=81-100%) | 1 (1=0-20%) | 5 (5=81-100%) | 1 (1=0-20%)
2 | FC(F)(F)c1cc(Oc2ccnc(C(F)(F)F)n2)n(-c2ncc(Cl)cn2)n1 [Compound 1.011] | 4 (4=61-80%) | 4 (4=61-80%) | 1 (1=0-20%) | 4 (4=61-80%) | – | 4 (4=61-80%) | 5 (5=81-100%) | 1 (1=0-20%) | 5 (5=81-100%) | –
3 | FC(F)(F)c1cc(Oc2ccnc(Cl)n2)n(-c2ncc(Cl)cn2)n1 [Compound 1.012] | 1 (1=0-20%) | 2 (2=21-40%) | 1 (1=0-20%) | 1 (1=0-20%) | – | 1 (1=0-20%) | 3 (3=41-60%) | 1 (1=0-20%) | 2 (2=21-40%) | –
4 | Cc1nccc(Oc2cc(C(F)(F)F)nn2-c2ncc(Cl)cn2)n1 [Compound 1.015] | 1 (1=0-20%) | 2 (2=21-40%) | 1 (1=0-20%) | 1 (1=0-20%) | – | 1 (1=0-20%) | 3 (3=41-60%) | 1 (1=0-20%) | 2 (2=21-40%) | –
5 | N#Cc1cccc(Oc2cc(C(F)(F)F)nn2-c2ncc(Cl)cn2)n1 [Compound 1.023] | 4 (4=61-80%) | 4 (4=61-80%) | 3 (3=41-60%) | 4 (4=61-80%) | – | 4 (4=61-80%) | 5 (5=81-100%) | 4 (4=61-80%) | 5 (5=81-100%) | –
6 | Fc1cnc(-n2nc(C(F)(F)F)cc2Oc2cccc(C(F)(F)F)n2)nc1 [Compound 1.024] | 1 (1=0-20%) | 2 (2=21-40%) | 1 (1=0-20%) | 1 (1=0-20%) | – | 1 (1=0-20%) | 5 (5=81-100%) | 1 (1=0-20%) | 1 (1=0-20%) | –
7 | FC(F)Oc1cccc(Oc2cc(C(F)(F)F)nn2-c2ncccn2)n1 [Compound 1.027] | 1 (1=0-20%) | 4 (4=61-80%) | 2 (2=21-40%) | 1 (1=0-20%) | – | 1 (1=0-20%) | 3 (3=41-60%) | 2 (2=21-40%) | 1 (1=0-20%) | –
8 | FC(F)Oc1cnc(-n2nc(C(F)(F)F)cc2Oc2cccc(OC(F)F)n2)nc1 [Compound 1.028] | 5 (5=81-100%) | 5 (5=81-100%) | 3 (3=41-60%) | 5 (5=81-100%) | – | 5 (5=81-100%) | 5 (5=81-100%) | 1 (1=0-20%) | 5 (5=81-100%) | –
9 | N#Cc1ccc(-n2nc(C(F)(F)F)cc2Oc2cccc(OC(F)F)n2)nc1 [Compound 1.029] | 1 (1=0-20%) | 5 (5=81-100%) | 3 (3=41-60%) | 1 (1=0-20%) | – | 2 (2=21-40%) | 4 (4=61-80%) | 1 (1=0-20%) | 2 (2=21-40%) | –
10 | N#Cc1cc(Cl)cnc1-n1nc(C(F)(F)F)cc1Oc1cccc(OC(F)F)n1 [Compound 1.030] | 1 (1=0-20%) | 3 (3=41-60%) | 1 (1=0-20%) | 2 (2=21-40%) | – | 1 (1=0-20%) | 2 (2=21-40%) | 1 (1=0-20%) | 1 (1=0-20%) | –
11 | Fc1cc(Cl)cnc1-n1nc(C(F)(F)F)cc1Oc1cccc(OC(F)F)n1 [Compound 1.031] | 1 (1=0-20%) | 4 (4=61-80%) | 1 (1=0-20%) | 2 (2=21-40%) | – | 1 (1=0-20%) | – | 1 (1=0-20%) | 2 (2=21-40%) | –
